From publication PMC4594927 (PLoS ONE, 2015)

Columns and labels:
MtbIMPDH2ΔCBS [1] = biological target: T1, MtbIMPDH2ΔCBS (Mycobacterium tuberculosis, UniProt P9WKI7, DEL126-250/R252G); type: biochemical
MtbIMPDH2ΔCBS [2] = biological target: T1, MtbIMPDH2ΔCBS; type: biochemical; remark: listed apart in the source

SMILES: C[C@H](Nc1cccc(Cl)c1Cl)C(=O)Nc1ccc2oc(-c3ccncc3)nc2c1 [Q67]
- mechanism of inhibition vs. IMP (MtbIMPDH2ΔCBS [1]): 17 ± 9 (UC)
- mechanism of inhibition vs. NAD^+ (MtbIMPDH2ΔCBS [1]): 7 ± 7 (C)
- mechanism of inhibition with respect to IMP (MtbIMPDH2ΔCBS [1]): uncompetitive
- mechanism of inhibition with respect to NAD+ (MtbIMPDH2ΔCBS [1]): competitive

SMILES: NC(=O)c1ccc[n+]([C@@H]2O[C@H](COP(=O)([O-])OP(=O)(O)OC[C@H]3O[C@@H](n4cnc5c(N)ncnc54)[C@H](O)[C@@H]3O)[C@@H](O)[C@H]2O)c1 [NAD+]
- Kii (NAD+) (MtbIMPDH2ΔCBS [2]): 16 ± 1 mM

SMILES: C=C(C)c1cccc(C(C)(C)NC(=O)Nc2ccc(Cl)c(C(=O)N(C)C)c2)c1 [P41]
- mechanism of inhibition vs. IMP (MtbIMPDH2ΔCBS [1]): 9 ± 4 (UC)
- mechanism of inhibition vs. NAD^+ (MtbIMPDH2ΔCBS [1]): 13 ± 4 (NC)
- mechanism of inhibition with respect to IMP (MtbIMPDH2ΔCBS [1]): uncompetitive
- mechanism of inhibition with respect to NAD+ (MtbIMPDH2ΔCBS [1]): noncompetitive

SMILES: COc1c(C)c2c(c(O)c1C/C=C(\C)Cn1cc(COC[C@H]3O[C@@H](n4cnc5c(N)ncnc54)[C@H](O)[C@@H]3O)nn1)C(=O)OC2 [MAD1, reference compound]
- mechanism of inhibition vs. IMP (MtbIMPDH2ΔCBS [1]): 1000 ± 50 (UC)
- mechanism of inhibition vs. NAD^+ (MtbIMPDH2ΔCBS [1]): 1400 ± 100 (UC)
- mechanism of inhibition with respect to IMP (MtbIMPDH2ΔCBS [1]): uncompetitive
- mechanism of inhibition with respect to NAD+ (MtbIMPDH2ΔCBS [1]): uncompetitive
